{"source": "paper PMC10891214", "about": "“Effects of food and ethnicity on the pharmacokinetics of venadaparib, a next-generation PARP inhibitor, in healthy Korean, Caucasian, and Chinese male subjects” (Investigational New Drugs, 2023)", "origin": "cited, not measured here", "tested_on": "patient-derived xenograft", "set-up": "method as in PMID 36808277", "settings": "patient-derived xenograft mouse model; cited from earlier work"}
{"molecule": "O=C(c1cc(Cc2n[nH]c(=O)c3ccccc23)ccc1F)N1CCN(C(=O)C2CC2)CC1", "note": "[olaparib, reference compound]", "values": [{"measurement": "Tumor growth inhibition rate", "result": 118.2, "unit": "%"}]}
